Experimental data from publication PMC10449631 (Nature Chemical Biology, 2023).
Several values for one entry are separate records, joined by “and”; a condition that tells them apart may be missing. Equal values may be shown once. No end group written: not given here.

Legend:
[1] = molecular target: T1, PaAP_T (P. aeruginosa aminopeptidase, C-terminal truncated) (Pseudomonas aeruginosa, UniProt Q02PA2); test: Inhibition of PaAP_T in the Leu-pNA aminopeptidase assay (KI, IC50); assay type: biochemical; details: for IC50 plot data (PaAP_T activity at given peptide concentration): (S) = 2 mM, PaAP 100 nM, listed as ERWGHDFIK (linear)
T1 construct: PaAP (WT, residues 27–536); His6 (TEV cleavable) (N, cleaved yes); made in house; host or cells: E. coli SHuffle T7
Description: Aminopeptidase activity was determined spectrophotometrically primarily using amino Leu-pNA. Other commercially available pNA substrates (isoleucine, methionine, alanine, valine, proline, arginine, lysine and phenylalanine) were also assayed. Leu-pNA was incubated with enzyme (100 nM) in assay buffer (50 mM Tris, pH 8.5, 200 mM NaCl) at 25 °C. A pNA release caused an absorbance increase at 405 nm, monitored using a BMG Labtech plate reader. […] Data were plotted in GraphPad Prism (version 9) and the Michalis Menten equation was used for fitting.
Inhibition assays were carried out with the following peptides: linear-ERWGHDFIK (PaAP C-terminal residues), cyclic-ERWGHDFIK, N-acetylated and C-amidated ERWGHDFIK. IC50 values were determined by varying peptide concentration at a fixed substrate concentration (fixed at KM, (S) = 2 mM, PaAP concentration was 100 nM). […] KI values were determined by fitting the data to equation (1) (Morrison’s equation):1 v=1−Et+I+KI−Et+I+KI^2−4EtIKI/2Et where v is the velocity, Et is the total enzyme concentration, I is the concentration of inhibitor and KI is the equilibrium dissociation constant for the inhibitor. IC50 values increased when measured at increasing S, consistent with competitive inhibition.

[2] = tested on: PaAP variant R194A; test: biochemical; design: species or system Pseudomonas aeruginosa; details: compared to full-length PaAP
Description: (§1) To test this, we produced the PaAP variant R194A to eliminate a likely salt bridge between the peptide COOH and the guanidinium of the protein arginine side chain.
(§2) Inhibition assays were carried out with the following peptides: linear-[…] (PaAP C-terminal residues), cyclic-[…], N-acetylated and C-amidated […]. IC50 values were determined by varying peptide concentration at a fixed substrate concentration (fixed at KM, (S) = 2 mM, PaAP concentration was 100 nM). KI was determined by assaying multiple fixed inhibitor concentrations (1,000 nM, 500 nM, 250 nM, 100 nM, 50 nM, 25 nM and 10 nM) at varying substrate concentrations under standard reaction conditions with Leu-pNA as a substrate (outlined above). KI values were determined by fitting the data to equation (1) (Morrison’s equation):1 v=1−Et+I+KI−Et+I+KI^2−4EtIKI/2Et where v is the velocity, Et is the total enzyme concentration, I is the concentration of inhibitor and KI is the equilibrium dissociation constant for the inhibitor.

[3] = molecular target: T2, PaAP variant R194A (Pseudomonas aeruginosa, UniProt Q02PA2, R194A); test: biochemical
T2 construct: PaAP (WT, residues 27–536); His6 (TEV cleavable) (N, cleaved yes); made in house; host or cells: E. coli SHuffle T7
Description: as §1, §2

T1 sequence (Q02PA2 37-516, looked up, natural form): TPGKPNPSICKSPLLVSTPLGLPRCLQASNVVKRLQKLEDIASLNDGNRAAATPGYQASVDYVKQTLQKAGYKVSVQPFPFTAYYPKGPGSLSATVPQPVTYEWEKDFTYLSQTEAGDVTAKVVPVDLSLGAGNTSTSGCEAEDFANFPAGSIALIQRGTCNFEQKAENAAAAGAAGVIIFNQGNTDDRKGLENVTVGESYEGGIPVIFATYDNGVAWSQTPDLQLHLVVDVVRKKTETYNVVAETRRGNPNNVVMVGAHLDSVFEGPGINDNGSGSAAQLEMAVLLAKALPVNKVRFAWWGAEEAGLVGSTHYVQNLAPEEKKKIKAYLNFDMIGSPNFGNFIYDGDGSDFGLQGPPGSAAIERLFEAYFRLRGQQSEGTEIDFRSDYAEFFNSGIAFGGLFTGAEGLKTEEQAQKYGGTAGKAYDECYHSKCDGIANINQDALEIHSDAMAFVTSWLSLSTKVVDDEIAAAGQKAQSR
T2 sequence (Q02PA2 37-516, looked up, stated change not applied): as the sequence (Q02PA2 37-516, looked up, natural form) above

## ERWGHDFIK [linear-ERWGHDFIK]
[1]
  Ki: 9.98 µM
[1]; inhibitor 1 μM, [S] 0.125 mM
  Slope: 21.4683 and 20.3052 and 17.979
[1]; inhibitor 1 μM, [S] 0.25 mM
  Slope: 41.2291 and 37.1458 and 30.365
[1]; inhibitor 1 μM, [S] 0.5 mM
  Slope: 67.9068 and 67.7954 and 67.0654
[1]; inhibitor 1 μM, [S] 1 mM
  Slope: 121.633 and 131.285 and 109.532
[1]; inhibitor 1 μM, [S] 2 mM
  Slope: 200.701 and 204.537 and 171.128
[1]; inhibitor 1 μM, [S] 4 mM
  Slope: 291.524 and 268.014 and 241.411
[1]; inhibitor 5 μM, [S] 0.125 mM
  Slope: 9.581 and 8.778 and 8.696
[1]; inhibitor 5 μM, [S] 0.25 mM
  Slope: 32.4809 and 31.8746 and 26.7767
[1]; inhibitor 5 μM, [S] 0.5 mM
  Slope: 59.2205 and 59.9629 and 55.5826
[1]; inhibitor 5 μM, [S] 1 mM
  Slope: 96.3415 and 104.397 and 108.74
[1]; inhibitor 5 μM, [S] 2 mM
  Slope: 181.646 and 174.716 and 170.509
[1]; inhibitor 5 μM, [S] 4 mM
  Slope: 244.875 and 240.668 and 225.201
[1]; inhibitor 10 μM, [S] 0.125 mM
  Slope: 20.5527 and 17.7562 and 12.5469
[1]; inhibitor 10 μM, [S] 0.25 mM
  Slope: 41.2291 and 35.2155 and 27.5686
[1]; inhibitor 10 μM, [S] 0.5 mM
  Slope: 78.3873 and 67.5108 and 53.8255
[1]; inhibitor 10 μM, [S] 1 mM
  Slope: 125.469 and 113.021 and 101.823
[1]; inhibitor 10 μM, [S] 2 mM
  Slope: 183.502 and 182.636 and 149.35
[1]; inhibitor 10 μM, [S] 4 mM
  Slope: 242.153 and 233.244 and 209.115
[1]; inhibitor 25 μM, [S] 0.125 mM
  Slope: 6.59 and 5.065
[1]; inhibitor 25 μM, [S] 0.25 mM
  Slope: 13.4378 and 10.2466 and 12.344
[1]; inhibitor 25 μM, [S] 0.5 mM
  Slope: 24.5618 and 19.0802 and 21.3817
[1]; inhibitor 25 μM, [S] 1 mM
  Slope: 49.4576 and 37.8759 and 44.6938
[1]; inhibitor 25 μM, [S] 2 mM
  Slope: 81.2827 and 58.2058 and 83.8441
[1]; inhibitor 25 μM, [S] 4 mM
  Slope: 157.641 and 123.551 and 157.764
[1]; inhibitor 50 μM, [S] 0.25 mM
  Slope: 11.9777 and 10.1576 and 8.79
[1]; inhibitor 50 μM, [S] 0.5 mM
  Slope: 21.0971 and 19.6494 and 15.7888
[1]; inhibitor 50 μM, [S] 2 mM
  Slope: 58.0945 and 62.2891 and 43.8276
[1]; inhibitor 50 μM, [S] 4 mM
  Slope: 81.3941 and 82.5449 and 61.3735
[1]; inhibitor 100 μM, [S] 0.125 mM
  Slope: 4.015 and 2.528
[1]; inhibitor 100 μM, [S] 0.25 mM
  Slope: 7.23 and 6.8674 and 5.4469
[1]; inhibitor 100 μM, [S] 0.5 mM
  Slope: 11.4246 and 12.4479 and 9.504
[1]; inhibitor 100 μM, [S] 1 mM
  Slope: 22.1736 and 23.0274 and 17.6325
[1]; inhibitor 100 μM, [S] 2 mM
  Slope: 38.6801 and 37.22 and 41.7859
[1]; inhibitor 100 μM, [S] 4 mM
  Slope: 61.8313 and 63.972 and 50.5094
[1]; log(I) 0
  IC50 plot data (PaAP_T activity at given peptide concentration): 90.0485 and 96.6538 and 93.9669
[1]; log(I) 0.39794
  IC50 plot data (PaAP_T activity at given peptide concentration): 67.4338 and 85.0852 and 79.5995
[1]; log(I) 0.69897
  IC50 plot data (PaAP_T activity at given peptide concentration): 45.9385 and 56.7981 and 56.8354
[1]; log(I) 1
  IC50 plot data (PaAP_T activity at given peptide concentration): 21.9729 and 26.522 and 23.891
[1]; log(I) 1.39794
  IC50 plot data (PaAP_T activity at given peptide concentration): 12.1508 and 12.1918 and 12.9158
[1]; log(I) 1.69897
  IC50 plot data (PaAP_T activity at given peptide concentration): 10.3856 and 11.9269 and 11.4231
[1]; log(I) 2
  IC50 plot data (PaAP_T activity at given peptide concentration): 9.945 and 11.4156 and 11.076
[1]; log(I) -0.30103
  IC50 plot data (PaAP_T activity at given peptide concentration): 92.6981 and 112.924 and 94.3774
[2]
  fold increase of IC50 with R194A variant: 100 fold
[3]
  IC50: 306 µM
